Consider seven molecules from patent US20230049952A1, “METHODS AND COMPOUNDS FOR RESTORING MUTANT P53 FUNCTION” (PMV Pharmaceuticals, Inc., priority 2020, published 2023).

Molecules are shown by their SMILES. Several values for one entry are separate records, joined by “and”; a condition that tells them apart may be missing. Equal entries are not always repeated.

The target of one series is P-GP (Homo sapiens, UniProt P08183). Put plainly: in vitro. The following applies: pH 7.4.
A further series addresses CYP3A (Homo sapiens, UniProt P08684). Put plainly: in vitro. The following applies: both, microsomes, pH 7.4, % of Control Enzyme Activity, HLM; for activity at 10 min, 0.037 µM: 0.0370 μM.
A short description of series [1]: in vitro. The following applies: male, plasma. Here is the method: Studies were carried out in mixed-gender human plasma, male Sprague-Dawley rat plasma, male CD-1 mouse plasma, male Beagle dog plasma, and male Cynomolgus monkey plasma collected on sodium heparin. A Rapid Equilibrium Dialysis (RED) device was used for all experiments. […] Blank PBS (500 μL) was added to each corresponding receiver chamber. The device was then placed into an enclosed heated rocker that was pre-warmed to 37° C., and allowed to incubate for four hours. After 4 hours of incubation, both sides were sampled.
Aliquots (50 μL for donor, 200 μL for receiver) were removed from the chambers and placed into a 96-well plate. Plasma (50 μL) was added to the wells containing the receiver samples, and 200 μL of PBS was added to the wells containing the donor samples. Two volumes of acetonitrile were added to each well, and the plate was mixed and then centrifuged at 3,000 rpm for 10 minutes. Aliquots of the supernatant were removed, and analyzed by LCMS/MS. Calibration standards were prepared in a matched matrix and prepared similarly to the assay samples. Binding and recovery values were calculated as follows: % Bound=[(Concentration in Donor−Concentration in Receiver)/(Concentration in Donor)]×100; % Recovery=[(Concentration in Donor+Concentration in Receiver)/(Nominal Dosing Concentration)]×100.

Another series concerns the target CYP2C9 (Homo sapiens, UniProt P11712). In words: in vitro. Conditions: both, microsomes, pH 7.4, % of Control Enzyme Activity.
The nature of series [2]: in vitro. How it is done:
All working solutions were freshly prepared similarly as described for the test article working solution.
Assay for determining Blood to plasma ratio: Pooled male CD-1 mouse, Sprague-Dawley rat, beagle dog and cynomolgus monkey plasma, and mixed gender human blood with EDTAK2 as anticoagulant were stored on wet ice and used the same day. […] After mixing thoroughly, 0.6 mL of spiked blood was transferred to a 96-well plate in triplicate. Concurrently, control compounds were spiked into each species blood in the same fashion to generate the final concentration of 2.0 μM.
The rest of the spiked blood samples were immediately placed into a humidified incubator with 5% CO2 at 37° C., with constant swiveling at 500 rpm for 60 min on a platform shaker. […] The T60-plasma samples for analysis were obtained by taking 50 μL of plasma from each well, mixed with 50 μL of blank blood and 100 μL of water, followed by addition of 600 μL stop solution. […] All the T0, T60-blood and T60-plasma samples were shaken vigorously at 800 rpm for 30 min followed by the centrifugation at 3220×g at 20° C. for 20 min. 100 μL aliquot of supernatant was diluted with 100 μL of water and mixed well for LC-MS/MS analysis.
Measurement of Hematocrit: The hematocrit (the volume percentage of erythrocytes in blood) was determined in triplicate for each species by centrifuging the blood samples with a HAEMATOKRIT 200 at 9440×g for 5 min.
Data analysis: The ratio of compound concentrations in whole blood over plasma (KB/P) and % Recovery in blood were calculated by the following equations: KB/P=[…]([T60-blood]/[T60-plasma]), where [T60-blood] is the peak area ratios of analyte/internal standard in whole blood sample at 60 min; [T60-plasma] is the peak area ratios of analyte/internal standard in plasma sample at 60 min; [T0-blood] is the peak area ratios of analyte/internal standard in whole blood sample at time zero.

Series [3] deals with T1, CYP2B6 (Homo sapiens, UniProt P20813).
T1 sequence (P20813 1-491): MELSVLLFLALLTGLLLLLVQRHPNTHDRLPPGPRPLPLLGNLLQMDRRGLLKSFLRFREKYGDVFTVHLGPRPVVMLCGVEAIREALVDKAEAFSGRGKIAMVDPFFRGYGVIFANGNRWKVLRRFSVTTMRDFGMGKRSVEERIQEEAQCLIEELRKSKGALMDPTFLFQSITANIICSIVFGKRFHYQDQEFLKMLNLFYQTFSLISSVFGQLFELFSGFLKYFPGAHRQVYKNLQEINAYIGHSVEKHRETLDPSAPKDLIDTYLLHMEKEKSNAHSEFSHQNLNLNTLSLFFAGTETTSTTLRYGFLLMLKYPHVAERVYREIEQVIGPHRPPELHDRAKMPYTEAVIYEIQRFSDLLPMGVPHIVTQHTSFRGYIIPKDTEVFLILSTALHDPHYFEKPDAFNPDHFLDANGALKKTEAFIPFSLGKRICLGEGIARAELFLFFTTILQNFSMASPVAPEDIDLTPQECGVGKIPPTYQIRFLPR
Put plainly: CYP inhibition in human liver microsomes. It is filed as in vitro ADME. On the set-up: from tissue; host or cells: pooled human liver microsomes, 200 donors. The following applies: both sexes, pooled human liver microsomes, pH 7.4, HLM, read-out: % of Control Enzyme Activity. Here is the method:
The HLMs were stored at −80° C. until use.
Negative (vehicle) controls were conducted without a test article.

Series [4] addresses T1, CYP2B6. In words: time-dependent CYP inhibition in human liver microsomes (IC50 shift). The following applies: both, pooled human liver microsomes, pH 7.4, % of Control Enzyme Activity; for activity at 20 min, 0.37 µM: 0.370 μM.
Series [5] relates to CYP2B6. In words: CYP induction in human hepatocytes (mRNA and enzyme activity). Conditions: for % Induction Relative to Positive Control / Fold-Change: CYP2B6 enzyme activity, control article.

Sequence of CYP3A (P08684 2-503): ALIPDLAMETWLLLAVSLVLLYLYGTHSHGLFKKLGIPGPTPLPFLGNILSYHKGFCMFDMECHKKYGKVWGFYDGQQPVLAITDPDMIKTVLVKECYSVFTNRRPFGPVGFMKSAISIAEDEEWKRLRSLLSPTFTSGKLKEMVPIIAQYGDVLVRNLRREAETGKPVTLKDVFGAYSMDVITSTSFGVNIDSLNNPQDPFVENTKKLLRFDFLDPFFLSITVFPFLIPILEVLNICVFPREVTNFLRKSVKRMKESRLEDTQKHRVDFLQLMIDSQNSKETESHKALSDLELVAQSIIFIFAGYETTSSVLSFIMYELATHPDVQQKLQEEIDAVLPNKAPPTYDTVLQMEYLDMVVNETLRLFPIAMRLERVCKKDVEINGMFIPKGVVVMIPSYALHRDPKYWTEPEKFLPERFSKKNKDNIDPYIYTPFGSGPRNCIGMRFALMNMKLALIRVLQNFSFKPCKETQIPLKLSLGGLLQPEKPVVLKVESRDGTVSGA
Sequence of CYP2C9 (P11712 whole entry): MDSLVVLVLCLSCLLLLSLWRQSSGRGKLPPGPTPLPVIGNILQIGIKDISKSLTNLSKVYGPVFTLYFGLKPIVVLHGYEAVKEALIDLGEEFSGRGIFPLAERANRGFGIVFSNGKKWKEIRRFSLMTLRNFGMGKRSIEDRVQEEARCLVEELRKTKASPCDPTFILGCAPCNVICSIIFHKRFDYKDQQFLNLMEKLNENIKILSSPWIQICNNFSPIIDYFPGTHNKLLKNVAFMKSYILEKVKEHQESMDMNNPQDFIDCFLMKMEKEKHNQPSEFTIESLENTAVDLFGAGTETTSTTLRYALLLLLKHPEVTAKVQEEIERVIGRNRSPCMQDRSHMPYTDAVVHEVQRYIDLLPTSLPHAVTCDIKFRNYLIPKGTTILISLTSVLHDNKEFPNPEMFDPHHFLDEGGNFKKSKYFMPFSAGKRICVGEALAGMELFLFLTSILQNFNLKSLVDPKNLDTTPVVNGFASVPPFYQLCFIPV
Sequence of P-GP (P08183 whole entry): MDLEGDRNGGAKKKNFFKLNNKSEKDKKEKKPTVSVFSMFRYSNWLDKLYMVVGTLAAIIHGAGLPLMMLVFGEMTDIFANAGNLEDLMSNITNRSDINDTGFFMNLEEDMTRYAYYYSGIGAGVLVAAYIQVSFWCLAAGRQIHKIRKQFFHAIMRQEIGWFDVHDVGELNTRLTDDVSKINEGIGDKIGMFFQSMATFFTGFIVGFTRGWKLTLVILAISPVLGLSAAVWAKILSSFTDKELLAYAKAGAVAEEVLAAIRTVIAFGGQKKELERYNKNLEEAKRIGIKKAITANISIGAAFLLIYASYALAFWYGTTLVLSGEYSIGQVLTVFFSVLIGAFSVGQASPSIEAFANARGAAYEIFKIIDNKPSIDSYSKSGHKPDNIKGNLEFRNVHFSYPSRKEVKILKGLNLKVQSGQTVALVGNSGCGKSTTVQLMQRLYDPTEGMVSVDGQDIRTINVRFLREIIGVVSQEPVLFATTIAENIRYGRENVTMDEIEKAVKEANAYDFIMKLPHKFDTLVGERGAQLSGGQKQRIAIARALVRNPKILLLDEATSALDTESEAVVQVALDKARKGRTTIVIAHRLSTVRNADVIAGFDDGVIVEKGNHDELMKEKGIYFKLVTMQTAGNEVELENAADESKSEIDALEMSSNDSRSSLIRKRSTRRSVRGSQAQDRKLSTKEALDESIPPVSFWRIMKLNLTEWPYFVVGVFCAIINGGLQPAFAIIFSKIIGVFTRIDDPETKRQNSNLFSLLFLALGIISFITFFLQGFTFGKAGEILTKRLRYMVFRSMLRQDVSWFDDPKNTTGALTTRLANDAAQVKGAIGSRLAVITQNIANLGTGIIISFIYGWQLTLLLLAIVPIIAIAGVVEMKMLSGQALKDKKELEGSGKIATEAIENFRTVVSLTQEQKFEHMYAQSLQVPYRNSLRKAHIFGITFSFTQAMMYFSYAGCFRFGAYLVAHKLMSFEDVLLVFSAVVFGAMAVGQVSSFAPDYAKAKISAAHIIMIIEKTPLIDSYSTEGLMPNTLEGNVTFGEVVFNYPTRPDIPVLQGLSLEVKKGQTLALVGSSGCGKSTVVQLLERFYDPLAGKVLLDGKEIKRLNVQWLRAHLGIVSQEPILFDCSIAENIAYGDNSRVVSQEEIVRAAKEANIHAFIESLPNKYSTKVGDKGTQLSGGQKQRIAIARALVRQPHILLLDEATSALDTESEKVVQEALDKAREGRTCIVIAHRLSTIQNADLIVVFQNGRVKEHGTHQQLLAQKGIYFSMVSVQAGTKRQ

In the case of `C/C=C/C[C@@H](C)C(=O)[C@H]1C(=O)N[C@@H](C(C)C)C(=O)N(C)CC(=O)N(C)[C@@H](CC(C)C)C(=O)N[C@@H](C(C)C)C(=O)N(C)[C@@H](CC(C)C)C(=O)N[C@@H](C)C(=O)N[C@H](C)C(=O)N(C)[C@@H](CC(C)C)C(=O)N(C)[C@@H](CC(C)C)C(=O)N(C)[C@@H](C(C)C)C(=O)N1C` [Valspodar, valspodar], the inhibition at 120 min, 1 µM at P-GP came out at 100%.
With `CC(=O)N1CCN(c2ccc(OCC3COC(Cn4ccnc4)(c4ccc(Cl)cc4Cl)O3)cc2)CC1` (stereo not shown) [Ketoconazole, ketoconazole], at CYP3A (Midazolam probe), the activity at 10 min, 0.0123 µM is 74.5%; the activity at 10 min, 0.037 µM came to 49.9%; the activity at 10 min, 3 µM turned out to be 5.38%. On CYP3A (Testosterone probe), the activity at 10 min, 0.0123 µM turned out to be 58.4%; the activity at 10 min, 0.037 µM came to 32.9%; the activity at 10 min, 3 µM came to 1.56%. The activity at 10 min, 0.333 µM on CYP3A (Testosterone probe, 0.333 μM) came out at 6.75%. Also, the activity at 10 min, 1 µM on CYP3A (Testosterone probe, 1.00 μM) is 3.54%.
Take `CC(=O)CC(c1ccccc1)c1c(O)c2ccccc2oc1=O` (stereo not shown) [Warfarin, warfarin]: the fraction unbound at 4 h, 10 μM in the series “in vitro [1]” (Beagle, dog, % Bound Mean) was 0.026; in “in vitro [1]” (Beagle, dog, % Bound R1-R3), 0.027; in “in vitro [1]” (CD-1, mouse, % Bound Mean) it was 0.217; in “in vitro [1]” (CD-1, mouse, % Bound R1-R3), 0.226; in “in vitro [1]” (monkey, % Bound Mean), 0.006; in the series “in vitro [1]” (monkey, % Bound R1-R3), 0.007.
In the case of `O=C(O)COc1ccc(C(=O)c2cccs2)c(Cl)c1Cl` [Tienilic acid], on CYP2C9, the activity at 20 min, 0.123 µM came to 96.5%; the activity at 20 min, 0.37 µM stood at 80.1%; the activity at 20 min, 3.33 µM was 32.8%; the activity at 20 min, 30 µM turned out to be 8.14%. Besides, at CYP2C9, the activity at 20 min, […] is 101% and 57.4%; the activity at 30 min, 0.123 µM came out at 74.4%; the activity at 30 min, 0.37 µM came out at 36.8%; the activity at 30 min, 3.33 µM was found to be 9.24%. For the same molecule, the activity at 30 min, 30 µM at CYP2C9 is 3.84%.
In the case of `CCN(CC)CCCC(C)Nc1ccnc2cc(Cl)ccc12` (stereo not shown) [Chloroquine, chloroquine], the recovery at 60 min, 2 μM in the series “in vitro [2]” (both, human) turned out to be 90.8 ± 6.07%; in the series “in vitro [2]” (male, CD-1, mouse), 99.4 ± 1.7%; in “in vitro [2]” (male, Sprague-Dawley, rat), 100 ± 1.86%; in the series “in vitro [2]” (male, beagle, dog), 113 ± 3.57%; in “in vitro [2]” (male, cynomolgus monkey), 96.9 ± 1.83%.
Take `S=P(N1CC1)(N1CC1)N1CC1` [Thio-TEPA]: the activity at 20 min, 0.123 µM on CYP2B6 [3] (0.123 μM) turned out to be 97%. The activity at 20 min, 0.37 µM was 97.3% at CYP2B6 [3] (0.370 μM), 86.4% at CYP2B6 [4] (pre-incubation 30 min +NADPH) and 92.5% at CYP2B6 [4] (pre-incubation 30 min −NADPH). Moreover, the activity at 20 min, 3.33 µM is 69.7% at CYP2B6 [3] (3.33 μM), 37.6% at CYP2B6 [4] (pre-incubation 30 min +NADPH) and 78.5% on CYP2B6 [4] (pre-incubation 30 min −NADPH). For the same molecule, the figures for the activity at 20 min, 10 µM at CYP2B6 [3] (10.0 μM), at CYP2B6 [4] (pre-incubation 30 min +NADPH) and at CYP2B6 [4] (pre-incubation 30 min −NADPH) were 44.3%, 18% and 58.6%, respectively. In addition, the activity at 20 min, 30 µM at CYP2B6 [3] (30.0 μM) was 25.6%; at CYP2B6 [4] (pre-incubation 30 min +NADPH) it was 11.7%; at CYP2B6 [4] (pre-incubation 30 min −NADPH) it was 41.4%.
For `CCC1(c2ccccc2)C(=O)NC(=O)NC1=O` [PB, phenobarbital], the “% Induction Relative to Positive Control” value in the series with CYP2B6 [5] (Donor 1), with CYP2B6 [5] (Donor 2) and in the series on CYP2B6 [5] (Donor 3) was 100% in each case. Moreover, the Fold-Change in the series on CYP2B6 [5] (Donor 1) worked out at 6.84; in the series with CYP2B6 [5] (Donor 2), 8.56; in the series with CYP2B6 [5] (Donor 3) it was 3.36. For the same molecule, the “CYP2B6 mRNA % Induction Relative to Positive Control” value in the series on CYP2B6 [5] (Donor 1, 1000 μM) was found to be 100%; with CYP2B6 [5] (Donor 2, 1000 μM) it was 100%; with CYP2B6 [5] (Donor 3, 1000 μM), 100%. Further, the “CYP2B6 mRNA Fold Change (n = 3) Mean” value in the series on CYP2B6 [5] (Donor 1, 1000 μM) worked out at 24.4; in the series with CYP2B6 [5] (Donor 2, 1000 μM) it was 793; with CYP2B6 [5] (Donor 3, 1000 μM), 6.85. Further, in the series on CYP2B6 [5] (donor 2, positive control), the “CYP2B6 mRNA fold increase (positive control)” value was 793 fold.
